Test results from patent US7470807B2, “Substituted arylalkanoic acid derivatives and use thereof” (Asahi Kasei Pharma Corporation, priority 2003, dated 2008).

What was measured:
[1] = tested on: pulmonary fibrosis; conditions: clinical tests in the United States and Japan; cited from earlier work
[2] = tested on: bleomycin-induced pulmonary fibrosis; assay: Bleomycin-induced rat pulmonary fibrosis model; format: in vivo; conditions: for median of the fibrosing score: bleomycin intratracheal, oral 10, 30, 100 and 300 mg/kg once or twice a day for 21 days, positive control ++ to +++; for fibrosing in groups administered with known type 4 PLA2 inhibitory compounds: bleomycin model, intraperitoneally or orally administered in a similar manner
Description: A suppressing effect on pulmonary fibrosing in a bleomycin-induced rat pulmonary fibrosis model, which is a pathological model of pulmonary fibrosis, was studied by the following method. Groups of BN female rats (7-week old) each consisting of seven rats were used for the test. The test animals were anesthetized with ketamine and xylazine, and the tracheae were exposed. Then, a 125 μg/0.1 ml solution of bleomycin (Nippon Kayaku) dissolved in physiological saline (Ohtsuka Pharmaceutical Factory) was injected into the tracheae by using a syringe. The negative control group was administered with 0.1 ml of saline into the tracheae.
Each test compound was suspended or dissolved in purified water containing 0.5% methylcellulose, and orally administered to the test animals at doses of 10, 30, 100 and 300 mg/5 ml/kg. The administration of the test compounds was started from the day of the bleomycin administration and performed once or twice a day for 21 days. The positive control group was administered with purified water containing 0.5% methylcellulose not added with any test compound in a similar manner. On the 21st day after the administration of bleomycin, the rats were sacrificed, and lungs were fixed with neutral buffered formalin to prepare histopathological samples. Staining of the histopathological samples was performed by the Azan method.
The histopathological samples of lungs were examined, and degree of fibrosing was represented with the following scores on the basis of formation of granulation tissues and proliferation of collagen fibers as indicators, i.e., −: no abnormality, ±: extremely mild change, +: mild change, ++: moderate change, and +++: significant change.

Row | Molecule | median of the fibrosing score [2] | fibrosing in groups administered with known type 4 PLA2 inhibitory compounds [2] | also measured
1 | Cc1ccc(=O)n(-c2ccccc2)c1 [pirfenidone] |  |  | effect against pulmonary fibrosis in clinical tests [1]: effective
2 | 3-[4-cyclopentyloxy-3-(naphthalen-2-yl)phenyl]propionic acid [G-2] | ± to + |  | 
3 | O=C(CCc1ccc(OCCS(=O)(=O)CCOC(c2ccc(Cl)cc2)c2ccc(Cl)cc2)cc1)C(F)(F)F [4-{4-[2-(2-[bis(4-chlorophenyl)methoxy]ethylsulfonyl)ethoxy]phenyl}-1,1,1-trifluoro-2-butanone] |  | mild | 
4 | 3-[4-cyclopentyloxy-3-(1H-indole-5-yl)phenyl]propionic acid [G-4] | ± to + |  | 
5 | COc1cc(C(=O)O)ccc1Cc1cn(C(c2ccccc2)c2ccccc2)c2cc(Cl)ccc12 [4-(1-benzhydryl-6-chloro-1H-indol-3-ylmethyl)-3-methoxybenzoic acid, reference compound] |  | mild | 
6 | O=C1NC(=O)C(=Cc2ccc(C(=O)NCC3CC(SC(c4ccccc4)(c4ccccc4)c4ccccc4)CN3C(=O)c3ccccc3C(=O)c3ccc(F)cc3F)cc2)S1 (stereo not drawn) [N-{1-[2-(2,4-difluorobenzoyl)benzoyl]-4-tritylsulfanylpyrrolidin-2-ylmethyl}-4-(2,4-dioxothiazolidin-5-ylidenemethyl)benzoic acid amide] |  | mild | 
